“Also recorded” adds a separate entry of the source.
Columns and labels:
Format in all cases: cell-based, murine
[1] = system: differentiated adipocytes (3T3-L1 cells); assay: Oil red O staining, lipid droplet size in differentiated cultured adipocytes; details: 6 days, vs untreated control (C)
Method: (§1) 3T3-L1 murine fibroblasts were obtained from American Type Culture Collection (Rockville, MD, USA). After thawing, cells were resuspended in DMEM, supplemented with 10% heat-inactivated fetal bovine serum (FBS, Invitrogen, Carlsbad, CA, USA) and 1% antibiotic/antimycotic solution (Invitrogen). Culture medium was replaced every 3 days containing 0.25 μM dexamethasone, 10 μg/ml insulin and 0.5 mM 3-isobutyl-1-methylxanthine (Sigma-Aldrich, St. Louis, MO, USA) in DMEM with 10% FBS. Differentiating 3T3-L1 preadipocytes were treated with TQ or Vitamin D3 or combinations thereof for 6 days.
The size of the lipid droplets in differentiated adipocytes (i.e., 3T3-L1 cells prepared as in the previous section) following the various treatments was measured using oil red O staining. Briefly, differentiated adipocytes were washed with phosphate buffered saline (PBS) and fixed in 3.7% formaldehyde for 10 min. Cells were stained with oil red O solution for 30 min at 25° C. Staining was visualized using bright-field microscopy. Lipid droplet size was then measured using Image Pro (advance Imaging Concept, Inc., Princeton, NJ).
The aim of this study was to investigate the effect of combinations of TQ and vitamin D3 on the accumulation of lipids in cultured adipocytes. For the purpose of this investigation, 3T3-L1 murine fibroblasts were grown and differentiated as described hereinabove. The differentiated cultures were then treated for six days with TO, vitamin D3 or combinations thereof. Following this treatment, the size of the accumulated lipid droplets within the cultured cells were assessed using the oil red O staining method described hereinabove.

UCP1 = assay: Western blot, UCP1 expression in cultured adipocytes; details: TQ 1 μM, vitamin D3 10 nM, alone or combined; 6 days; relative to β-actin; FIG. 6
Method: as §1
(§2) The cultured adipocytes were homogenized and lysed in RIPA lysis buffer containing protease and phosphatase inhibitors (Complete TM Mini and PhosSTOPTM, Roche Diagnostics, Indianapolis, IN). […] The blots were visualized using an Odyssey Infrared Imaging Scanner (Li-Cor Science Tec) and quantified by densitometric analysis after normalization with β-actin. […]
(§3) The aim of this study was to investigate the effect of a combination of vitamin D3 (10 nM) and TQ (1 μM) on the expression of the UCP1, PGC-1α and Mfn2 genes in cultured adipocytes. […] Following SDS-PAGE separation and western blotting, the three gene products were detected using the appropriate antibodies, and the level of each protein measured, all as described above in the general methods section.

PGC-1α = assay: Western blot, PGC-1α expression in cultured adipocytes; details: TQ 1 μM, vitamin D3 10 nM, alone or combined; 6 days; relative to β-actin; FIG. 7
Method: as §1, §2, §3

Mfn2 = assay: Western blot, Mfn2 expression in cultured adipocytes; details: TQ 1 μM, vitamin D3 10 nM, alone or combined; 6 days; relative to β-actin; vs untreated control (C); FIG. 8
Method: as §1, §2, §3

TNF-α = assay: Western blot, TNF-α levels produced by cultured differentiated 3T3-L1 cells; details: 1 μM TQ alone or 10 nM Vitamin D3 alone, vs untreated control (C), FIG. 9
Method: as §1
as §2, with “IN). Protein samples were separated using 10% sodium dodecyl sulfate-polyacrylamide (SDS) gels and transferred to a nitrocellulose membrane (Bio-Rad, Hercules, CA, USA).” for “IN).”
The levels of TNF-α produced by cultured, differentiated 3T3-L1 cells were measured using specific anti-TNF-α antibodies in a western blot assay, as described hereinabove. […]

Structure (SMILES) | average lipid droplet size ([1]; TQ 1 μM, FIG. 1) | average lipid droplet size ([1]; TQ 2 μM, FIG. 1) | average lipid droplet size ([1]; TQ 4 μM, FIG. 1) | UCP1 expression (UCP1) | PGC-1α expression (PGC-1α) | Mfn2 expression (Mfn2) | decrease in TNF-α expression (TNF-α) | average lipid droplet size ([1]; Vitamin D3 1 nM, FIG. 2) | average lipid droplet size ([1]; Vitamin D3 10 nm, FIG. 2) | average lipid droplet size ([1]; Vitamin D3 100 nm, FIG. 2)
CC1=CC(=O)C(C(C)C)=CC1=O [TQ, thymoquinone] | statistically significant reduction in lipid droplet size | statistically significant reduction in lipid droplet size; also recorded: greater degree of size reduction than that caused by the 1 μM dose; also recorded: greatest effect | statistically significant reduction in lipid droplet size; also recorded: did not cause any further enhancement of this effect; also recorded: greatest effect | statistically significant elevation of UCP1 expression | statistically significant elevation of PGC-1α expression | statistically significant elevation of Mfn2 expression | approximately 50% | – | – | –
C=C1CC[C@H](O)C/C1=C/C=C1\CCC[C@]2(C)[C@@H]([C@H](C)CCCC(C)C)CC[C@@H]12 [Vitamin D3, cholecalciferol, reference compound] | – | – | – | statistically significant elevation of UCP1 expression | statistically significant elevation of PGC-1α expression | statistically significant elevation of Mfn2 expression | approximately 50% | slight reduction in lipid droplet size, this reduction was not statistically significant | statistically significant reduction in lipid droplet size | statistically significant reduction in lipid droplet size

From US20250049816A1, “COMPOSITIONS COMPRISING THYMOQUINONE AND VITAMIN D” (N.S. Oils Ltd., priority 2021, published 2025)
